The text below walks through data of patent publication US20040087642A1, “Methods of using and compositions comprising a JNK inhibitor for the treatment, prevention, management and/or modification of pain” (priority 2002, published 2004).

Data set [1] can be described thus: Brain-Blood Plasma Distribution In Vivo. The settings on record: rat. Set-up: species or system Sprague-Dawley rats. How it is done:
5-Amino-anthra(9,1-cd)isothiazol-6-one was administered intravenously (10 mg/kg) into the veins of Sprague-Dawley rats. After 2 hr, blood samples were obtained from the animals and their vascular systems were perfused with approximately 100 mL of saline to rid their brains of blood. The brains were removed from the animals, weighed, and homogenized in a 50 mL conical tube containing 10 equivalents (w/v) of methanol/saline (1:1) using a Tissue Tearer (Fischer Scientific). The homogenized material was extracted by adding 600 μL of cold methanol to 250 μL of brain homogenate vortexed for 30 sec and subjected to centrifugation for 5 min. After centrifugation, 600 μL of the resulting supernatant was transferred to a clean tube and evaporated at room temperature under reduced pressure to provide a pellet. […] The brain homogenate analysis samples, plasma analysis samples, and standard analysis samples were analyzed and compared using HPLC by injecting 100 μL of a sample onto a 5 μm C-18 Luna column (4.6 mm×150 mm, commercially available from Phenomenex of Torrance, Calif.) and eluting at 1 mL/min with a linear gradient of 30% aqueous acetonitrile containing 0.1% trifluoroacetic acid to 90% aqueous acetonitrile containing 0.1% trifluoroacetic acid over 8 minutes and holding at 90% aqueous acetonitrile containing 0.1% trifluoroacetic acid for 3 min. with absorbance detection at 450 nm. […]

Data set [2] concerns rat ventral mesencephalan dopaminergic neurons. The experiment in a line: [3H]Dopamine Cell Culture Assay (6-OHDA neurotoxicity). Type of data set: cell-based. The settings on record: 6-OHDA 30 μM, uptake 22 hrs after exposure. How it is done:
Cultures of dopaminergic neurons were prepared according to a modification of the procedure described by Raymon and Leslie (J. Neurochem. 62:1015-1024, 1994). Time-mated pregnant rats were sacrificed on embyronic day 14-15 (crown rump length 11-12 mm) and the embryos removed by cesarean section. The ventral mesencephalon, containing the dopaminergic neurons, was dissected from each embryo. Tissue pieces from approximately 48 embryos were pooled and dissociated both enzymatically and mechanically. An aliquot from the resulting cell suspension was counted and the cells were plated in high glucose DMEM/F12 culture medium with 10% fetal bovine serum at a density of 1×10^5 cells/well of a Biocoat poly-D-lysine-coated 96-well plate. The day following plating was considered 1 day in vitro (DUV). Cells were maintained in a stable environment at 37° C., 95% humidity, and 5% CO2. A partial medium change was performed at 3 DIV. […]
[^3H]Dopamine uptake is used as a measure of the health and integrity of dopaminergic neurons in culture (Prochiantz et al., PNAS 76: 5387-5391, 1979). […] Briefly, cells treated with 6-OHDA in the presence and absence of 5-amino-anthra(9,1-cd)isothiazol-6-one were assessed in the uptake assay 22 hrs after exposure to 6-OHDA. […] Radioactivity was removed and the cultures were washed 3× with ice cold PBS. […]

Data set [3] in a line: Solubility in aqueous media. It is filed as physicochemical.

Regarding `Nc1ccc2snc3c2c1C(=O)c1ccccc1-3` [5-amino-anthra(9,1-cd)isothiazol-6-one], in data set [1] (10 mg/kg intravenously, 2 hr post-dose), the brain-drug concentration result was “approximately 65 nmole/g”. Also, the blood-brain barrier crossing entry in data set [1] (following intravenous administration) is recorded as “crosses the blood-brain barrier to a significant extent”. Also, in data set [2], the “protection of dopaminergic neurons ([3H]dopamine uptake)” value is on record as “protects rat ventral mesencephalan neurons from the toxic effects of 6-OHDA”. In addition, in data set [3], the “solubility in aqueous media” value is reported as “limited solubility”.
